Test system: BT-474 breast cancer cells
Assay: Toxicity of the Compound (IVa) polymer in BT-474 cultures
Assay type: cell-based
Settings: 24-hours
Method: The small molecule, N-allyl noroxymorphone hydrochloride, was added to Compound IVa (SiH3—[SiH2]n—SiH2—[C5H7O2]n with Ca10(PO4)6(OH)2) at a concentration of 0.4-mg N-allyl noroxymorphone/mg of Compound IVa. Then the MAGE-Polymerization Initiator Solution containing the vinyl monomer vinyl methacrylate was added in a ratio of 2:1. The material—with N-allyl noroxymorphone hydrochloride—was then polymerized and added to cultures of BT-474 breast cancer cells. Cultures were also treated with N-allyl noroxymorphone hydrochloride alone. Control cultures received no treatment.

C=CCN1CC[C@]23c4c5ccc(O)c4O[C@H]2C(=O)CC[C@@]3(O)[C@H]1C5.Cl [N-allyl noroxymorphone hydrochloride]
Decrease in cell number relative to Control Cultures: 59.7%

Reference: patent US12128064B1, “Polysilane methacrylic compounds and methods of making them” (Zetagen Therapeutics, Inc., priority 2024, dated 2024)
